Measurements as given in ChEMBL document CHEMBL3044544, “Synthesis, preliminary cytotoxicity evaluation of new 3-formylchromone hydrazones and phosphorohydrazone derivatives of coumarin and chromone” (Med Chem Res, 2012).
Counter-ions that a name gives are not always drawn. Activity calls are given as the source filed them. No cut-off for these calls is given here.

Experiments:
Format in all cases: functional, cell-based
HL-60 [1] = test: Cytotoxicity against Homo sapiens (human) HL60 cells assessed as reduction in cell survival fraction after 48 hr by MTT assay; settings: HL-60, 48 h
NALM-6 = test: Cytotoxicity against Homo sapiens (human) NALM6 cells assessed as reduction in cell survival fraction after 48 hr by MTT assay; settings: NALM-6, 48 h
HL-60 [2] = test: Induction of apoptosis in Homo sapiens (human) HL60 cells assessed as increase in cytosolic cytochrome c level at 5 times IC50 after 0.5 hr by ELISA
HL-60 [3] = test: Induction of apoptosis in Homo sapiens (human) HL60 cells assessed as increase in cytosolic cytochrome c level at IC50 after 0.5 hr by ELISA
HL-60 [4] = test: Induction of apoptosis in Homo sapiens (human) HL60 cells assessed as increase in cytosolic cytochrome c level at 0.2 times IC50 after 0.5 hr by ELISA
HL-60 [5] = test: Induction of apoptosis in Homo sapiens (human) HL60 cells assessed as increase in cytosolic cytochrome c level at 0.2 to 5 times IC50 by ELISA; settings: TDE = time-dependent effect
HL-60 [6] = test: Induction of apoptosis in Homo sapiens (human) HL60 cells assessed as increase in cytosolic cytochrome c level after 0.5 to 4 hr by ELISA
[7] = Cytotoxicity against Homo sapiens (human) HL60/ADR cells assessed as reduction in cell survival fraction after 48 hr by MTT assay

O=c1c(/C=N/Nc2cc(Cl)ccc2Cl)coc2ccccc12
IC50 (HL-60 [1]): 265 µM
IC50 (NALM-6): 85.3 µM

Nc1oc2ccccc2c(=O)c1/C=N/Nc1ccc(C(=O)O)cc1
IC50 (HL-60 [1]): 940 µM
IC50 (NALM-6): 628 µM

COP(=S)(OC)N(C)/N=C/c1coc2ccccc2c1=O
Activity (HL-60 [2]): Active
Activity (HL-60 [3]): Active
Activity (HL-60 [4]): Active
Activity (HL-60 [5]): tde
Activity (HL-60 [6]): Dose-dependent effect
IC50 (HL-60 [1]): 34.4 µM
IC50 [7]: 30.6 µM
IC50 (NALM-6): 28.8 µM

Nc1oc2ccccc2c(=O)c1/C=N/N=C(c1ccccc1)c1ccccc1
IC50 (HL-60 [1]): 56.2 µM
IC50 [7]: 54.8 µM
IC50 (NALM-6): 102 µM

Nc1oc2ccc(Cl)cc2c(=O)c1/C=N/NCCO
Activity (HL-60 [2]): Active
Activity (HL-60 [3]): Active
Activity (HL-60 [4]): Active
Activity (HL-60 [5]): tde
Activity (HL-60 [6]): Dose-dependent effect
IC50 (HL-60 [1]): 6.6 µM
IC50 [7]: 7.9 µM
IC50 (NALM-6): 28 µM

Nc1oc2ccccc2c(=O)c1/C=N/NCCO
IC50 (HL-60 [1]): 48.5 µM
IC50 (NALM-6): 42.1 µM

Cc1cc2oc(N)c(/C=N/NCCO)c(=O)c2cc1C
IC50 (HL-60 [1]): 23.5 µM
IC50 (NALM-6): 65.3 µM

COP(=S)(OC)N(C)/N=C/c1c(O)c2ccccc2oc1=O
IC50 (HL-60 [1]): 61.8 µM
IC50 (NALM-6): 56.5 µM

CC(=O)CC(c1ccccc1)c1c(O)c2ccccc2oc1=O (stereo not given) [WARFARIN]
IC50 (HL-60 [1]): 486 µM
IC50 (NALM-6): 74.8 µM

COC(=O)N/N=C/c1c(N)oc2ccccc2c1=O
IC50 (HL-60 [1]): 463 µM
IC50 (NALM-6): 407 µM

Nc1oc2ccccc2c(=O)c1/C=N/Nc1cc(Cl)ccc1Cl
IC50 (HL-60 [1]): > 1000 µM
IC50 (NALM-6): 500 µM

COc1cccc2c1C(=O)c1c(O)c3c(c(O)c1C2=O)C[C@@](O)(C(=O)CO)C[C@@H]3O[C@H]1C[C@H](N)[C@H](O)[C@H](C)O1 [DOXORUBICIN HYDROCHLORIDE]
IC50 (HL-60 [1]): 0.04 µM

CCOP(=S)(OCC)N(C)/N=C/c1c(O)c2ccccc2oc1=O
IC50 (HL-60 [1]): 86.3 µM
IC50 (NALM-6): 66.5 µM

COC(=O)N/N=C/c1coc2ccccc2c1=O
IC50 (HL-60 [1]): 371 µM
IC50 (NALM-6): 309 µM
